Results from US10981932B2, “Macrocyclic indole derivatives” (Bayer Aktiengesellschaft, priority 2016, dated 2021).
Where a name gives a salt, the structure may show the parent alone. Read-outs that look alike come from different tables or passages of the source.

How the values were obtained:
SUDHL10 [1] = assay: Induction of cytotoxicity (CellTiter-Glo, 5 h), SUDHL10
SUDHL5 [2] = assay: Anti-proliferative effect (CellTiter-Glo, 72 h), SUDHL5; format: cell-based; details: SUDHL5 cells, antiproliferation, 72 h incubation, median, read-out: Antiproli SUDHL5 [M] (median)
How it was run: (§1)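 Cells plated and incubated with compounds for 72 h at 37 °C, with a parallel day 0 reference plate for time-zero signal. Viability read by CellTiter-Glo luminescence after 10 min, measured identically on the day 0 and 72 h plates.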

SUDHL10 [3] = assay: Induction of caspase-3/7 activity (Caspase-Glo 3/7), SUDHL10; format: cell-based; details: caspase-3/7 induction, SUDHL10 cells, 3 h treatment, median
How it was run: (§2)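 DLBCL lines SUDHL5 and SUDHL10 treated with compounds for 3 h at 37 °C; caspase-3/7 activity read by Caspase-Glo 3/7 luminescence. Medium-only background subtracted; EC50 fitted with bottom fixed at 1 and top fixed at the reference compound's maximal induction.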

MCL-1 = MCL-1 (Homo sapiens, UniProt Q07820); assay: Protein-protein interaction assay MCL-1/Noxa BH3 peptide (MCL-1 assay), TR-FRET; format: binding; details: MBP-MCL-1 / Noxa BH3-derived peptide, median
Chain of MCL-1 (Q07820 whole entry): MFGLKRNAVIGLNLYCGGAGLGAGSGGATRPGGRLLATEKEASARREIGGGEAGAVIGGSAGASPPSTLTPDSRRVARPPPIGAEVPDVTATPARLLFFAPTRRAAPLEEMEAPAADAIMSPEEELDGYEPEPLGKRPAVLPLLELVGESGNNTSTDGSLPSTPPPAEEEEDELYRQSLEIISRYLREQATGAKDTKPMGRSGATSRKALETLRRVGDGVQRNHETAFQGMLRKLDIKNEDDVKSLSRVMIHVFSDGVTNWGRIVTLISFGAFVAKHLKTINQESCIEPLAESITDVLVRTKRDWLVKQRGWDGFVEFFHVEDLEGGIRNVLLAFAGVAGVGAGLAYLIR
How it was run: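 IC50 came from a 4-parameter fit of the normalized 665/620 nm TR-FRET ratio (anti-MBP Eu-cryptate/streptavidin-XL665). Compounds (0.1 nM–20 μM, duplicates) were preincubated 10 min at 22 °C with 1 nM MBP-MCL-1 in pH 7 Tris/NaCl/KF buffer, then read after 1 h at 22 °C plus overnight at 4 °C.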

SUDHL5 [4] = assay: Induction of caspase-3/7 activity (Caspase-Glo 3/7), SUDHL5; format: cell-based; details: caspase-3/7 induction, SUDHL5 cells, 3 h treatment, median
How it was run: as §2

A2780 = assay: Anti-proliferative effect (CellTiter-Glo, 72 h), A2780; format: cell-based; details: A2780 cells, median, read-out: IC50 antiproliferation assay A2780 [M] (median)
How it was run: as §1

SUDHL5 [5] = assay: Induction of cytotoxicity (CellTiter-Glo, 5 h), SUDHL5
[6] = read-out: Cytotox SUDHL10 [M] (median), SUDHL10 cells, cytotoxicity induction, CellTiter-Glo, 5 h incubation, median
[7] = read-out: Cytotox SUDHL5 [M] (median), SUDHL5 cells, cytotoxicity induction, CellTiter-Glo, 5 h incubation, median
[8] = Homo sapiens, SU-DHL10, 5 h, read-out: Cytotox SUDHL10 [M] (median), SUDHL10 cells, cytotoxicity induction, CellTiter-Glo, 5 h incubation, median

Structure (SMILES) | IC50 (SUDHL5 [2]) | EC50 (SUDHL10 [3]) | IC50 (MCL-1) | EC50 (SUDHL5 [4]) | IC50 (A2780) | IC50 (SUDHL5 [2]; Homo sapiens, SU-DHL-5, 72 h) | IC50 (A2780; Homo sapiens, A2780, 72 h) | EC50 (SUDHL10 [3]; Homo sapiens, SU-DHL10, 3 h) | IC50 (SUDHL10 [1]; [6]) | IC50 (SUDHL5 [5]; [7]) | IC50 (SUDHL10 [1]; [8]) | EC50 (SUDHL5 [4]; Homo sapiens, SU-DHL-5, 3 h) | IC50 (SUDHL5 [5]; Homo sapiens, SU-DHL-5, 5 h, read-out: Cytotox SUDHL5 [M] (median), SUDHL5 cells, cytotoxicity induction, CellTiter-Glo, 5 h incubation, median)
CCc1nn(C)c2c1-c1c(C)ccc3c(C(C)CCOc4cccc5cc(F)ccc45)c(C(=O)O)n(c13)CCCCOC2 (single isomer, unassigned) [Example 264, 3-ethyl-7-{4-[(6-fluoronaphthalen-1-yl)oxy]butan-2-yl}-1,4-dimethyl-1,10,11,12,13,15-hexahydropyrazolo[4′,3′:9,10][1,6]oxazacycloundecino[8,7,6-hi]indole-8-carboxylic Acid] | 1.67e-05 M | > 33 µM | 0.132 µM | > 33 µM | 1.92e-05 M | – | – | – | > 3.3e-05 M | > 3.3e-05 M | – | – | –
Cc1nn(C)c2c1-c1cccc3c(CCCOc4cccc5cc(Cl)ccc45)c(C(=O)O)n(c13)CCCCOC2 (single isomer, unassigned; enantiomer 2) [Example 042, 7-{3-[(6-chloronaphthalen-1-yl)oxy]propyl}-1,3-dimethyl-1,10,11,12,13,15-hexahydropyrazolo[4′3′:9,10][1,6]oxazacycloundecino[8,7,6-hi]indole-carboxylic acid-N-ethylethanamine Salt (Enantiomer 2)] | 4.97e-06 M | > 33 µM | 0.0566 µM | > 33 µM | 1.02e-05 M | – | – | – | 3e-05 M | > 3.3e-05 M | – | – | –
Cc1nn(C)c2c1-c1cccc3c(CCCOc4cccc5cc(F)ccc45)c(C(=O)O)n(c13)CCCOC2 (single isomer, unassigned; enantiomer 2) [Example 048, 1-{3-[(6-fluoronaphthalen-1-yl)oxy]propyl}-9,11-dimethyl-5,6,8,9-tetrahydro-4H-pyrazolo[4′,3′:8,9][1,5]oxazecino[7,6,5-hi]indole-2-carboxylic acid-N-ethylethanamine Salt (Enantiomer 2)] | – | – | 0.0136 µM | – | – | 4.84e-06 M | 1.01e-05 M | 17.8 µM | – | – | 1.71e-05 M | 13.2 µM | 1.19e-05 M
Cc1c2c(nn1C)COCCCn1c(C(=O)O)c(CCCOc3cccc4ccccc34)c3cccc-2c31 (single isomer, unassigned; enantiomer 2) [Example 065, 10,11-dimethyl-1-[3-(naphthalen-1-yloxy)propyl]-5,6,8,10-tetrahydro-4H-pyrazolo[4′,3′:8,9][1,5]oxazecino[7,6,5-hi]indole-2-carboxylic acid-N-ethylethanamine Salt (Enantiomer 2)] | 2.61e-05 M | > 33 µM | 0.0393 µM | > 33 µM | > 3.3e-05 M | – | – | – | > 3.3e-05 M | > 3.3e-05 M | – | – | –
CCc1c2c(nn1C)COCCCCn1c(C(=O)O)c(CCCOc3cccc4ccccc34)c3cccc-2c31 (single isomer, unassigned; enantiomer 2) [Example 149, 3-Ethyl-2-methyl-7-[3-(1-naphthyloxy)propyl]-2,10,11,12,13,15-hexahydropyrazolo[4′,3′:9,10][1,6]oxazacycloundecino[8,7,6-hi]indole-carboxylic acid-N-ethylethanamine Salt (Enantiomer 2)] | 1.26e-05 M | > 33 µM | 0.0666 µM | > 33 µM | 2.84e-05 M | – | – | – | > 3.3e-05 M | > 3.3e-05 M | – | – | –
CCc1c2c(nn1C)COCCCCn1c(C(=O)O)c(CCCOc3cccc4ccccc34)c3ccc(C)c-2c31 (single isomer, unassigned; enantiomer 2) [Example 155, 3-Ethyl-2,4-dimethyl-7-[3-(1-naphthyloxy)propyl]-2,10,11,12,13,15-hexahydropyrazolo[4′,3′:9,10][1,6]oxazacycloundecino[8,7,6-hi]indole-8-carboxylic acid-N-ethylethanamine Salt (Enantiomer 2)] | 8.34e-06 M | > 33 µM | 0.048 µM | > 33 µM | 2.25e-05 M | – | – | – | > 3.3e-05 M | > 3.3e-05 M | – | – | –

The remaining molecules from weak to strong by IC50 (MCL-1), led by results:

IC50 (SUDHL5 [2]) | EC50 (SUDHL10 [3]) | IC50 (MCL-1) | EC50 (SUDHL5 [4]) | IC50 (A2780) | IC50 (SUDHL5 [2]; Homo sapiens, SU-DHL-5, 72 h) | IC50 (A2780; Homo sapiens, A2780, 72 h) | EC50 (SUDHL10 [3]; Homo sapiens, SU-DHL10, 3 h) | Structure (SMILES) | IC50 (SUDHL10 [1]; [6]) | IC50 (SUDHL5 [5]; [7]) | IC50 (SUDHL10 [1]; [8]) | EC50 (SUDHL5 [4]; Homo sapiens, SU-DHL-5, 3 h) | IC50 (SUDHL5 [5]; Homo sapiens, SU-DHL-5, 5 h, read-out: Cytotox SUDHL5 [M] (median), SUDHL5 cells, cytotoxicity induction, CellTiter-Glo, 5 h incubation, median)
5.73e-06 M | 32.7 µM | 0.0259 µM | > 33 µM | 2.78e-05 M | – | – | – | Cc1nn(C)c2c1-c1cccc3c(CCCOc4cccc5ccccc45)c(C(=O)O)n(c13)CCCOC2 (single isomer, unassigned; enantiomer 2) [Example 045, 9,11-dimethyl-1-[3-(naphthalen-1-yloxy)propyl]-5,6,8,9-tetrahydro-4H-pyrazolo[4′,3′:8,9][1,5]oxazecino[7,6,5-hi]indole-2-carboxylic acid-N-ethylethanamine Salt (Enantiomer 2)] | 2.89e-05 M | 2.59e-05 M | – | – | –
– | 9.37 µM | 0.0163 µM | 11.5 µM | – | 4.15e-06 M | 8.83e-06 M | – | Cc1nn(C)c2c1-c1cccc3c(CCCOc4cccc5ccccc45)c(C(=O)O)n(c13)CCCN(c1ccc(N3CCN(S(=O)(=O)N(C)C)CC3)cc1)C2 (single isomer, unassigned; enantiomer 1) [Example 1-106, 7-{4-[4-(Dimethylsulfamoyl)piperazin-1-yl]phenyl}-9,11-dimethyl-1-[3-(1-naphthyloxy)propyf]-4,5,6,7,8,9-hexahydropyrazolo[3′,4′:7,8][1,5]diazecino[9,10,1-hi]indole-2-carboxylic Acid (Enantiomer 1)] | – | 1.49e-05 M | 1.89e-05 M | – | –
1.12e-05 M | – | 0.0115 µM | 4.98 µM | – | – | 3.14e-05 M | 17.5 µM | Cc1c2c(nn1C)COCCCn1c(C(=O)O)c(CCCOc3cccc4ccccc34)c3cccc-2c31 (single isomer, unassigned; enantiomer 1) [Example 064, 10,11-dimethyl-1-[3-(naphthalen-1-yloxy)propyl]-5,6,8,10-tetrahydro-4H-pyrazolo[4′,3′:8,9][1,5]oxazecino[7,6,5-h]indole-2-carboxylic acid-N-ethylethanamine Salt (Enantiomer 1)] | – | 7.53e-06 M | 2.59e-05 M | – | –
1.5e-05 M | > 33 µM | 0.0103 µM | > 33 µM | 1.98e-05 M | – | – | – | CCn1nc(C2CC2)c2c1COCCCCn1c(C(=O)O)c(CCCOc3cccc4ccccc34)c3cccc-2c31 (single isomer, unassigned; enantiomer 2) [Example 090, 3-cyclopropyl-1-ethyl-7-[3-(naphthalen-1-yloxy)propyl]-1,10,11,12,13,15-hexahydropyrazolo[4′3′:9,10][1,6]oxazacycloundecino[8,7,6-hi]indole-8-carboxylic acid-N-ethylethanamine Salt (Enantiomer 2)] | > 3.3e-05 M | > 3.3e-05 M | – | – | –
6.96e-08 M | – | 0.00761 µM | 5.35 µM | – | – | 2.55e-05 M | 23.2 µM | Cc1nn(CC(F)(F)F)c2c1-c1cccc3c(CCCOc4cccc5c4CCCC5)c(C(=O)O)n(c13)CCCCOC2 (single isomer, unassigned; enantiomer 1) [Example 162, 3-methyl-7-[3-(5,6,7,8-tetrahydronaphthalen-1-yloxy)propyl]-1-(2,2,2-trifluoroethyl)-1,10,11,12,13,15-hexahydropyrazolo[4′,3′:9,10][1,6]oxazacycloundecino[8,7,6-hi]indole-8-carboxylic acid-N-ethylethanamine Salt (Enantiomer 1)] | – | 8.92e-06 M | 2.3e-05 M | – | –
– | – | 0.00384 µM | 6.76 µM | – | 1.71e-05 M | > 3.3e-05 M | 24.1 µM | CCn1nc(C2CC2)c2c1COCCCCn1c(C(=O)O)c(CCCOc3cccc4ccccc34)c3cccc-2c31 (single isomer, unassigned; enantiomer 1) [Example 089, 3-cyclopropyl-1-ethyl-7-[3-(naphthalen-1-yloxy)propyl]-1,10,11,12,13,15-hexahydropyrazolo[4′,3′:9,10][1,6]oxazacycloundecino[8,7,6-hi]indole-8-carboxylic acid-N-ethylethanamine Salt (Enantiomer 1)] | – | 7e-06 M | 3e-05 M | – | –
